Drawing on patent US8759520B2, “Compounds for treating cancer” (Boehringer Ingelheim International GmbH, priority 2008, dated 2014), this text covers IC50 for 29 molecules.

Where two headings read alike, the source gives them in different places.

The target of this test is Bcl-2 (Homo sapiens, UniProt P10415). Briefly: Homogeneous HTS assay for inhibitors of the Bcl-2 : Bak (72-87) BH3 domain interaction, fluorescence polarisation (2D-FIDA). In kind it is binding. An excerpt:
FIG. 1 is a schematic drawing of the Bcl-2: Bak (72-87) interaction assay based on fluorescence polarisation.
The homogeneous HTS assay for inhibitors of the Bcl-2 is shown schematically in FIG. 1. BH3 domain interaction is based on fluorescence polarisation. The inherent rotational diffusion of the Bak BH3 domain derived fluorescent labelled peptide decreases upon binding to Bc1-2. This shift in rotational diffusion is quantitated using the two-dimensional fluorescence intensity distribution analysis (2D-FIDA; Kask et al. 2000, Biophys. J. 78: 1703-1713).
Two different BH3 domain derived peptide ligands were synthesised and subsequently fluorescently labelled: • a 16mer peptide covering amino acids 72-87 of the Bak protein; this peptide had been used by Wang and co-workers and Holinger and coworkers in their Bcl-2 protein binding studies; Wang and co-workers reported an equilibrium binding constant KD of ˜0.2 μM to Bcl-2 protein; • peptide sequence: GQVGRQLAIIGDDINR—N (Wang et al. 2002, Proc. Natl. Acad. Sci. U.S.A. 97: 7124-7129; Holinger et al. 1999, J. Biol. Chem. 274: 13298-13304).
For orientation: In fluorescence polarisation assays a small probe gives low polarisation when free and higher when bound to something large.

Setting [1] is: fluorescence polarisation, fluorescent labelled Bak BH3 domain derived peptide, read-out: IC50 [μM] Bcl-2.

Sequence of Bcl-2 (P10415 whole entry, species assumed, the tested form may be a part): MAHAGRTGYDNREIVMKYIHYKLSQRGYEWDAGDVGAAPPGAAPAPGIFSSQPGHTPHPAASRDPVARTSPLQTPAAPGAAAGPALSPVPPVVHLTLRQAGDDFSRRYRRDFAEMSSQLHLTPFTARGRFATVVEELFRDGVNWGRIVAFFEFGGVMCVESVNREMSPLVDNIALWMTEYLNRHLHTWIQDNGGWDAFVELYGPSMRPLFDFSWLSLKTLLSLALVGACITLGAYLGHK

Broadly, the IC50 is the concentration that gives 50% inhibition. For `N=c1n(CCCOc2ccc(F)cc2)c2ccccc2n1Cc1ccc(N2CCN(Cc3ccccc3Cl)CC2)nc1` [Compound 57, 1-{6-[4-(2-Chloro-benzyl)-piperazin-1-yl]-pyridin-3-ylmethyl}-3-[3-(4-fluoro-phenoxy)-propyl]-1,3-dihydro-benzoimidazol-2-ylideneamine], the IC50 under setting [1] was 11 to 100 µM.
Take `COc1ccccc1OCC(O)Cn1c(=N)n(Cc2ccccc2)c2ccccc21` (centres unmarked) [Compound 89, 1-(3-Benzyl-2-imino-2,3-dihydro-benzoimidazol-1-yl)-3-(2-methoxy-phenoxy)-propan-2-ol]: the IC50 under setting [1] was 11 to 100 µM.
Same read-out and setting: under `CC(C)(C)c1ccc(Cn2c(=N)n(CC(O)COc3ccccc3)c3ccccc32)cc1` (centres unmarked) [Compound 104, 1-[3-(4-tert-Butyl-benzyl)-2-imino-2,3-dihydro-benzoimidazol-1-yl]-3-phenoxy-propan-2-ol] stands 11 to 100 µM.
On to `N=c1n(CCCOc2ccc(F)cc2)c2ccccc2n1Cc1ccc(Cl)nc1` [Compound 52, 1-(6-Chloro-pyridin-3-ylmethyl)-3-[3-(4-fluoro-phenoxy)-propyl]-1,3-dihydro-benzoimidazol-2-ylideneamine], for which the IC50 fell in the range of 11 to 100 µM.
For `CC1(C)CCC(c2ccc(Cl)cc2)=C(CN2CCN(c3ccc(Cn4c(=N)n(CCCOc5ccc(F)cc5)c5ccc(F)cc54)cc3)CC2)C1` [Compound 64, 3-(4-{4-[2-(4-Chloro-phenyl)-5,5-dimethyl-cyclohex-1-enylmethyl]-piperazin-1-yl}-benzyl)-5-fluoro-1-[3-(4-fluoro-phenoxy)-propyl]-1,3-dihydro-benzoimidazol-2-ylideneamine], the IC50 under setting [1] was less than 10 µM.
On the same count and under the same terms, for `N=c1n(CCCOc2ccc(F)cc2)c2ccccc2n1Cc1ccc(N2CCN(Cc3ccccc3)CC2)nc1` [Compound 53, 1-[6-(4-Benzyl-piperazin-1-yl)-pyridin-3-ylmethyl]-3-[3-(4-fluoro-phenoxy)-propyl]-1,3-dihydro-benzoimidazol-2-ylideneamine] the value was 11 to 100 µM.
On to `N=c1n(CCCOc2ccc(F)cc2)c2ccccc2n1Cc1ccc(CNCC(=O)Nc2ccc(Cl)cc2)cc1` [Compound 45, N-(4-Chloro-phenyl)-2-(4-{3-[3-(4-fluoro-phenoxy)-propyl]-2-imino-2,3-dihydro-benzoimidazol-1-ylmethyl}-benzylamino)-acetamide], for which the IC50 under setting [1] is 11 to 100 µM.
As to `COC(=O)c1cccc(Cn2c(=N)n(CCCOc3ccc(F)cc3)c3ccccc32)c1` [Compound 15, 3-{3-[3-(4-Fluoro-phenoxy)-propyl]-2-imino-2,3-dihydro-benzoimidazol-1-ylmethyl}-benzoic acid methyl ester], the IC50 under setting [1] is less than 10 µM.
Turning to `N=c1n(CCCOc2ccc(F)cc2)c2ccccc2n1Cc1ccc(-c2ccc(F)cc2)cc1` [Compound 16, 1-(4′-Fluoro-biphenyl-4-ylmethyl)-3-[3-(4-fluoro-phenoxy)-propyl]-1,3-dihydro-benzoimidazol-2-ylideneamine], the IC50 under setting [1] fell in the range of 11 to 100 µM.
On the same count and under the same terms, under `N=c1n(CCCOc2ccc(F)cc2)c2ccccc2n1Cc1ccc(CN2CCN(Cc3ccccc3)CC2)cc1` [Compound 46, 1-[4-(4-Benzyl-piperazin-1-ylmethyl)-benzyl]-3-[3-(4-fluoro-phenoxy)-propyl]-1,3-dihydro-benzoimidazol-2-ylideneamine] stands less than 10 µM; under `N=c1n(CCCOc2ccc(F)cc2)c2ccc(F)cc2n1Cc1ccc(N2CCN(Cc3ccccc3-c3ccccc3)CC2)cc1` [Compound 63, 3-[4-(4-Biphenyl-2-ylmethyl-piperazin-1-yl)-benzyl]-5-fluoro-1-[3-(4-fluoro-phenoxy)-propyl]-1,3-dihydro-benzoimidazol-2-ylideneamine], 11 to 100 µM.
Turning to `CCCCCn1c(=N)n(CC(O)COc2ccccc2OC)c2ccccc21` (centres unmarked) [Compound 98, 1-(2-Imino-3-pentyl-2,3-dihydro-benzoimidazol-1-yl)-3-(2-methoxy-phenoxy)-propan-2-ol], the IC50 under setting [1] fell in the range of 11 to 100 µM.
Same read-out and setting: under `N=c1n(CCCOc2ccc(F)cc2)c2ccccc2n1Cc1csc(N2CCN(Cc3ccccc3-c3ccc(Cl)cc3)CC2)n1` [Compound 36, 1-{2-[4-(4′-Chloro-biphenyl-2-ylmethyl)-piperazin-1-yl]-thiazol-4-ylmethyl}-3-[3-(4-fluoro-phenoxy)-propyl]-1,3-dihydro-benzoimidazol-2-ylideneamine] stands less than 10 µM; under `N=c1n(CCCOc2ccc(F)cc2)c2ccccc2n1Cc1cccc(Br)c1` [Compound 6, 1-(3-Bromo-benzyl)-3-[3-(4-fluoro-phenoxy)-propyl]-1,3-dihydro-benzoimidazol-2-ylideneamine], 11 to 100 µM; under `N=c1n(CCCOc2ccc(F)cc2)c2ccccc2n1Cc1ccc(CN2CCN(Cc3ccccc3Cl)CC2)cc1` [Compound 48, 1-{4-[4-(2-Chloro-benzyl)-piperazin-1-ylmethyl]-benzyl}-3-[3-(4-fluoro-phenoxy)-propyl]-1,3-dihydro-benzoimidazol-2-ylideneamine], 11 to 100 µM.
The same measure, in the same setting: under `N=c1n(CCCOc2cccc(C(=O)O)c2)c2ccccc2n1Cc1ccc(N2CCN(Cc3ccccc3-c3ccccc3)CC2)cc1` [Compound 70, 3-(3-{3-[4-(4-Biphenyl-2-ylmethyl-piperazin-1-yl)-benzyl]-2-imino-2,3-dihydro-benzoimidazol-1-yl}-propoxy)-benzoic acid] stands less than 10 µM; under `N=c1n(CCCOc2ccc(F)cc2)c2ccccc2n1Cc1ccc(CNCC(=O)Nc2ccccc2)cc1` [Compound 51, 2-(4-{3-[3-(4-Fluoro-phenoxy)-propyl]-2-imino-2,3-dihydro-benzoimidazol-1-ylmethyl}-benzylamino)-N-phenyl-acetamide], 11 to 100 µM; under `CC1(C)CCC(c2ccc(Cl)cc2)=C(CN2CCN(c3nc(Cn4c(=N)n(CCCOc5ccc(F)cc5)c5ccccc54)cs3)CC2)C1` [Compound 37, 1-(2-{4-[2-(4-Chloro-phenyl)-5,5-dimethyl-cyclohex-1-enylmethyl]-piperazin-1-yl}-thiazol-4-ylmethyl)-3-[3-(4-fluoro-phenoxy)-propyl]-1,3-dihydro-benzoimidazol-2-ylideneamine], less than 10 µM.
With `N=c1n(Cc2ccc(Br)cc2)c2ccccc2n1CC1COc2ccccc2O1` (centres unmarked) [Compound 13, 1-(4-Bromo-benzyl)-3-(2,3-dihydro-benzo[1,4]dioxin-2-ylmethyl)-1,3-dihydro-benzoimidazol-2-ylideneamine], the 50% inhibitory concentration (IC50) under setting [1] fell in the range of 11 to 100 µM.
For `Cc1ccc2c(c1)n(Cc1ccc(N3CCN(Cc4ccccc4-c4ccccc4)CC3)cc1)c(=N)n2CCCOc1ccc(F)cc1` [Compound 62, 3-[4-(4-Biphenyl-2-ylmethyl-piperazin-1-yl)-benzyl]-1-[3-(4-fluoro-phenoxy)-propyl]-5-methyl-1,3-dihydro-benzoimidazol-2-ylideneamine], under setting [1], the IC50 was less than 10 µM.
For the molecule `N=c1n(CCCOc2ccc(F)cc2)c2ccccc2n1Cc1ccc(N2CCN(Cc3cccc(Cl)c3)CC2)cc1` [Compound 21, 1-{4-[4-(3-Chloro-benzyl)-piperazin-1-yl]-benzyl}-3-[3-(4-fluoro-phenoxy)-propyl]-1,3-dihydro-benzoimidazol-2-ylideneamine], the IC50 under setting [1] was less than 10 µM.
Take `N=c1n(CCCOc2ccc(F)cc2)c2ccc(F)cc2n1Cc1ccc(Br)cc1` [Compound 59, 3-(4-Bromo-benzyl)-5-fluoro-1-[3-(4-fluoro-phenoxy)-propyl]-1,3-dihydro-benzoimidazol-2-ylideneamine]: under setting [1], the IC50 lay in the range of 11 to 100 µM.
The same measure, in the same setting: for `N=c1n(CCCOc2ccc([N+](=O)[O-])cc2)c2ccccc2n1Cc1ccc(Br)cc1` [Compound 14, 1-(4-Bromo-benzyl)-3-[3-(4-nitro-phenoxy)-propyl]-1,3-dihydro-benzoimidazol-2-ylideneamine] the value was 11 to 100 µM.
The same measure, in the same setting: for `N=c1n(Cc2ccccc2)c2ccccc2n1CC(O)c1ccco1` (centres unmarked) [Compound 91, 2-(3-Benzyl-2-imino-2,3-dihydro-benzoimidazol-1-yl)-1-furan-2-yl-ethanol] the value was greater than 100 µM.
Turning to `N=c1n(CCCOc2cccc(C(=O)O)c2)c2ccccc2n1Cc1ccc(N2CCN(Cc3ccccc3-c3ccc(Cl)cc3)CC2)cc1` [Compound 74, 3-[3-(3-{4-[4-(4′-Chloro-biphenyl-2-ylmethyl)-piperazin-1-yl]-benzyl}-2-imino-2,3-dihydro-benzoimidazol-1-yl)-propoxy]-benzoic acid], under setting [1], the IC50 was less than 10 µM.
On the same count and under the same terms, for `N=c1n(Cc2ccccc2)c2ccccc2n1Cc1cccnc1` [Compound 2, 1-Benzyl-3-pyridin-3-ylmethyl-1,3-dihydro-benzoimidazol-2-ylideneamine] the value was greater than 100 µM; for `N=c1n(CCCOc2ccc(F)cc2)c2ccccc2n1Cc1cccc(N2CCN(Cc3ccccc3-c3ccccc3)CC2)c1` [Compound 26, 1-[3-(4-Biphenyl-2-ylmethyl-piperazin-1-yl)-benzyl]-3-[3-(4-fluoro-phenoxy)-propyl]-1,3-dihydro-benzoimidazol-2-ylideneamine], less than 10 µM; for `N=c1n(CCCOc2ccc(F)cc2)c2ccccc2n1Cc1ccc(Cl)c(Cl)c1` [Compound 11, 1-(3,4-Dichloro-benzyl)-3-[3-(4-fluoro-phenoxy)-propyl]-1,3-dihydro-benzoimidazol-2-ylideneamine], 11 to 100 µM.
On the same count and under the same terms, for `N=c1n(CCCOc2ccc(F)cc2)c2ccccc2n1Cc1ccc(N2CCN(Cc3ccccc3-c3ccccc3)CC2)nc1` [Compound 56, 1-[6-(4-Biphenyl-2-ylmethyl-piperazin-1-yl)-pyridin-3-ylmethyl]-3-[3-(4-fluoro-phenoxy)-propyl]-1,3-dihydro-benzoimidazol-2-ylideneamine] the value was less than 10 µM.
